Key:
Thromboxane A2 receptor [1] = target: T1, Thromboxane A2 receptor (Homo sapiens, UniProt P21731); type: functional, cell-based
T1 sequence (P21731 whole entry): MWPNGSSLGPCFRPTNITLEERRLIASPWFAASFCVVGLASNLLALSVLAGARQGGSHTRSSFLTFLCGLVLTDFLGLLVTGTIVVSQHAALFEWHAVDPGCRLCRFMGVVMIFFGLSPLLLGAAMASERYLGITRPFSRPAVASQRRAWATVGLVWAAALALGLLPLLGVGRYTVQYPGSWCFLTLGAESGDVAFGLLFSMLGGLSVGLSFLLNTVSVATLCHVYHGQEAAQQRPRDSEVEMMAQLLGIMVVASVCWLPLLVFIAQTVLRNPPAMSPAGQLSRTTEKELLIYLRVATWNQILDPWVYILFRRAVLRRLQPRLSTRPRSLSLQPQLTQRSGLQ

D(3) dopamine receptor = D(3) dopamine receptor (Homo sapiens, UniProt P35462)
D(3) dopamine receptor, sequence (P35462 whole entry): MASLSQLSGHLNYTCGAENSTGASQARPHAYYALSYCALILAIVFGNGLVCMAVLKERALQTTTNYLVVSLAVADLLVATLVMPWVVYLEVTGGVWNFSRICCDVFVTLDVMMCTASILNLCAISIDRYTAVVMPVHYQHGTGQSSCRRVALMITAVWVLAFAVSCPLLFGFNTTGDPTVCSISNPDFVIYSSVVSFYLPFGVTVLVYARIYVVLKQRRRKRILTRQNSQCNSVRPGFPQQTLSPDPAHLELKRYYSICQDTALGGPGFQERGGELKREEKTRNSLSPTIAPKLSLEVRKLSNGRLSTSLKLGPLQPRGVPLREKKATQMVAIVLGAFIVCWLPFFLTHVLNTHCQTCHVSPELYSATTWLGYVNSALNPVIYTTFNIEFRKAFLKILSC

Estrogen receptor = target: T2, Estrogen receptor (Homo sapiens, UniProt P03372)
T2 sequence (P03372 whole entry): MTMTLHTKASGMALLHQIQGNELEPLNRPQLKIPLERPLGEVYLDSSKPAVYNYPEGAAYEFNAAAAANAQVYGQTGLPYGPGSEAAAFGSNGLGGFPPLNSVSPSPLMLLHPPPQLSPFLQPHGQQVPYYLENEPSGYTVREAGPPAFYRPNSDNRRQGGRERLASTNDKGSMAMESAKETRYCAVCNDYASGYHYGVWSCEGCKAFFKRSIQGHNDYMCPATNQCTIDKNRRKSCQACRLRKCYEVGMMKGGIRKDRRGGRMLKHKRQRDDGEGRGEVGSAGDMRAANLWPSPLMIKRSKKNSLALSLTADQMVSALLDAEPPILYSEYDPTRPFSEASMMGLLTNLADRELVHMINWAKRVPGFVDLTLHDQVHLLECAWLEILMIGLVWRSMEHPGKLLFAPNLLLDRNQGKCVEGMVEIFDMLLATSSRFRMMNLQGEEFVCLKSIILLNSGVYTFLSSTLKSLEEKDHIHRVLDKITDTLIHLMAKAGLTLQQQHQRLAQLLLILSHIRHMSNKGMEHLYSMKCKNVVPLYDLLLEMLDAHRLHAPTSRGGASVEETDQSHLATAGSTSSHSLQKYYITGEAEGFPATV

[2] = target: Sodium-dependent serotonin transporter (Homo sapiens, UniProt P31645)
Sodium-dependent serotonin transporter, sequence (P31645 whole entry): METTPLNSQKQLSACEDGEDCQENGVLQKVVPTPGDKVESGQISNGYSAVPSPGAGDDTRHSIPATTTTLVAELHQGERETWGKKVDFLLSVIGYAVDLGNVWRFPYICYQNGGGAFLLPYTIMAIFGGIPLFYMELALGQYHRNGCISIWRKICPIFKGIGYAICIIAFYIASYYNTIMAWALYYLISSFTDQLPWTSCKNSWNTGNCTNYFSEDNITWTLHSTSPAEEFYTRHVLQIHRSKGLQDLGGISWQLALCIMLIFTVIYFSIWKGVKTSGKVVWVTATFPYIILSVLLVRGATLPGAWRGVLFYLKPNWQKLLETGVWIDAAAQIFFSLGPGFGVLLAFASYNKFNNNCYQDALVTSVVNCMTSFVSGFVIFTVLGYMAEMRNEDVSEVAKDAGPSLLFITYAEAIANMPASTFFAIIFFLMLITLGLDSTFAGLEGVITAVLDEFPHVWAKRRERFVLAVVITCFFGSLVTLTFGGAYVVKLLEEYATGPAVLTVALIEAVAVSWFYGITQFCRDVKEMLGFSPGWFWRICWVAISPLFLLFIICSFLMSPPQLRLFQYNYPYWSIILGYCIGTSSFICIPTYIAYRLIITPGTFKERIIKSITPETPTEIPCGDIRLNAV

[3] = target: Sodium-dependent noradrenaline transporter (Homo sapiens, UniProt P23975)
Sodium-dependent noradrenaline transporter, sequence (P23975 whole entry): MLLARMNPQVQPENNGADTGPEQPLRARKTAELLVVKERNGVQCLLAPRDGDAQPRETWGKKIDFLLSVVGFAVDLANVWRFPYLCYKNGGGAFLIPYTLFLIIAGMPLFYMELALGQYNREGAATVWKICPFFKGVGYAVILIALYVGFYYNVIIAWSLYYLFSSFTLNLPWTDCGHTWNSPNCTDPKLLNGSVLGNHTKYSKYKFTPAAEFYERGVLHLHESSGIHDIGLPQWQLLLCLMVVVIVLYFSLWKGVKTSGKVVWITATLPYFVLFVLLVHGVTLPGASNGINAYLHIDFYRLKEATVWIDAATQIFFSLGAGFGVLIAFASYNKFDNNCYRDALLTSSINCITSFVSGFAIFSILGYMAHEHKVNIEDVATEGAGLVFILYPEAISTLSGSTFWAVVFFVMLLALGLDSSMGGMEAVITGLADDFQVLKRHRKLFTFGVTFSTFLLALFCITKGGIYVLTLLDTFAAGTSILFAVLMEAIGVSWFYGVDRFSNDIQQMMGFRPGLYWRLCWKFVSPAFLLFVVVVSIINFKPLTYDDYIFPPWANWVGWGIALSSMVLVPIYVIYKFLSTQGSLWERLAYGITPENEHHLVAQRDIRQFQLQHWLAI

Acetylcholinesterase = Acetylcholinesterase (Homo sapiens, UniProt P22303); type: functional
Acetylcholinesterase, sequence (P22303 whole entry): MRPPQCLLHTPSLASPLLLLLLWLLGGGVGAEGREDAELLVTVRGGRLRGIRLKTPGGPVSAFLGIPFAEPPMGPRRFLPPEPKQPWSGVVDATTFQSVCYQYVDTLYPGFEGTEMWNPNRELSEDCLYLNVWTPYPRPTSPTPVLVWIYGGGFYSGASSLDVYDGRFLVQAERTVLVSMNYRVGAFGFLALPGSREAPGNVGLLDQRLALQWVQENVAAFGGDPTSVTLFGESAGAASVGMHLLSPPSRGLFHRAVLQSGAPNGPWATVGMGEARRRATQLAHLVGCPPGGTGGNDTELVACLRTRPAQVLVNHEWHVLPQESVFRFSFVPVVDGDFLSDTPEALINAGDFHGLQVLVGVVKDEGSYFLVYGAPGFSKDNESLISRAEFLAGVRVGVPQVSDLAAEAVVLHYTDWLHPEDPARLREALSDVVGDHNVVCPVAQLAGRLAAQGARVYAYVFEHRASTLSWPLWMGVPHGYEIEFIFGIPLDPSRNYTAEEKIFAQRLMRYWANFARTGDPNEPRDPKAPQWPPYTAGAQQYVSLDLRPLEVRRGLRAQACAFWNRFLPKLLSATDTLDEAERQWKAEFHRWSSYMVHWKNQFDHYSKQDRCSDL

[4] = target: cGMP-inhibited 3',5'-cyclic phosphodiesterase 3A (Homo sapiens, UniProt Q14432); type: functional
cGMP-inhibited 3',5'-cyclic phosphodiesterase 3A, sequence (Q14432 whole entry): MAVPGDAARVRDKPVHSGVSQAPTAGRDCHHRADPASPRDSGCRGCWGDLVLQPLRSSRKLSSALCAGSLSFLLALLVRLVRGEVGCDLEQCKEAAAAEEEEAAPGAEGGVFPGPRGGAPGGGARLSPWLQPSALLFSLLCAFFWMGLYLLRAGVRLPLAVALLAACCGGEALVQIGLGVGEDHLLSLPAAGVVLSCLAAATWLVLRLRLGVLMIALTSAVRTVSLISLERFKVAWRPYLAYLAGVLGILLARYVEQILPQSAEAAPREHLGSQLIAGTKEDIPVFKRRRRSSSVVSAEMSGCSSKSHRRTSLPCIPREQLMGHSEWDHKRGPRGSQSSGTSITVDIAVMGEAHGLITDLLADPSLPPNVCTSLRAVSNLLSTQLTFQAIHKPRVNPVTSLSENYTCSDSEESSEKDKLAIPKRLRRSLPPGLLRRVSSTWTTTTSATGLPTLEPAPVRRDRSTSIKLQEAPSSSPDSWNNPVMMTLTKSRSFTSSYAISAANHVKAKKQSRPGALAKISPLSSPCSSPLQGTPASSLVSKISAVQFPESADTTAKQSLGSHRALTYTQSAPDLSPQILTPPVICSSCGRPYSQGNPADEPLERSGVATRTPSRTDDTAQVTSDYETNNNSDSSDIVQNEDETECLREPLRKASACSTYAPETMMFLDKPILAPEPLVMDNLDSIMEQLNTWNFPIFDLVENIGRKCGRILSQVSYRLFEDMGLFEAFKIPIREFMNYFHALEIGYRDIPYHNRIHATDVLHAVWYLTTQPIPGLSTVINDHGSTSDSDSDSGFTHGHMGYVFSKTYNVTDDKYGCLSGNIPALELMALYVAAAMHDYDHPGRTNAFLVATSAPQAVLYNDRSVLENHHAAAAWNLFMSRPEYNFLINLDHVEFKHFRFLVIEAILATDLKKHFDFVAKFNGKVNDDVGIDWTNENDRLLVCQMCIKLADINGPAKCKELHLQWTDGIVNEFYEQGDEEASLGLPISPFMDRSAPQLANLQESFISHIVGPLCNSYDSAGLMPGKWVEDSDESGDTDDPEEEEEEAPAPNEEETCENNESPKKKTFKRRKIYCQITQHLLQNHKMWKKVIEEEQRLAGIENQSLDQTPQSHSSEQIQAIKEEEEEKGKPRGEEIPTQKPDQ

Mu-type opioid receptor = Mu-type opioid receptor (Homo sapiens, UniProt P35372)
Mu-type opioid receptor, sequence (P35372 whole entry): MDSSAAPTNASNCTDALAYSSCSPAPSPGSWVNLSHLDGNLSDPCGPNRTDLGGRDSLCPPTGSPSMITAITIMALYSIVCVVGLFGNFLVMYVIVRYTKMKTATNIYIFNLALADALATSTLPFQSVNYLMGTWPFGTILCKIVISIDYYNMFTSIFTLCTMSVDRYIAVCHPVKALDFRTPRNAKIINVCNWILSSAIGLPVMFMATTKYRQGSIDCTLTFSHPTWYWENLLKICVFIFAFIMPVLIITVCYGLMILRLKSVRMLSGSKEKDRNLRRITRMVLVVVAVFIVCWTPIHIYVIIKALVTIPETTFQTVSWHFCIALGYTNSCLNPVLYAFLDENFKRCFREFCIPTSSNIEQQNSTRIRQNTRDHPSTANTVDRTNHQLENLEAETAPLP

Thromboxane A2 receptor [5] = target: T1, Thromboxane A2 receptor; type: functional, cell-based; remark: listed apart in the source
[6] = target: T3, Muscarinic acetylcholine receptor M2 (Homo sapiens, UniProt P08172)
T3 sequence (P08172 whole entry): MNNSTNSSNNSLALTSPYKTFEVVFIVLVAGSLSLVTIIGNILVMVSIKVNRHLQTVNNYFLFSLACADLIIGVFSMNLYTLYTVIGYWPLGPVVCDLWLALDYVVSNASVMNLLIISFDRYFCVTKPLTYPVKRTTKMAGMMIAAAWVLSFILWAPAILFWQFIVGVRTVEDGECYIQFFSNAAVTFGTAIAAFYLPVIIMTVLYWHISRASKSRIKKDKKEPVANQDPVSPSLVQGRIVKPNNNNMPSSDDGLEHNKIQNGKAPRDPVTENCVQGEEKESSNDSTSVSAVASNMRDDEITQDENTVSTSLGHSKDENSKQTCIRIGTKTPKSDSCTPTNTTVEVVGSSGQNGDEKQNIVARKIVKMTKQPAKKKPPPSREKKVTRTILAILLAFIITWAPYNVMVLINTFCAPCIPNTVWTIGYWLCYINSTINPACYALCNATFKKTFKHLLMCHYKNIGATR

[7] = target: T4, Alpha-2A adrenergic receptor (Homo sapiens, UniProt P08913)
T4 sequence (P08913 whole entry): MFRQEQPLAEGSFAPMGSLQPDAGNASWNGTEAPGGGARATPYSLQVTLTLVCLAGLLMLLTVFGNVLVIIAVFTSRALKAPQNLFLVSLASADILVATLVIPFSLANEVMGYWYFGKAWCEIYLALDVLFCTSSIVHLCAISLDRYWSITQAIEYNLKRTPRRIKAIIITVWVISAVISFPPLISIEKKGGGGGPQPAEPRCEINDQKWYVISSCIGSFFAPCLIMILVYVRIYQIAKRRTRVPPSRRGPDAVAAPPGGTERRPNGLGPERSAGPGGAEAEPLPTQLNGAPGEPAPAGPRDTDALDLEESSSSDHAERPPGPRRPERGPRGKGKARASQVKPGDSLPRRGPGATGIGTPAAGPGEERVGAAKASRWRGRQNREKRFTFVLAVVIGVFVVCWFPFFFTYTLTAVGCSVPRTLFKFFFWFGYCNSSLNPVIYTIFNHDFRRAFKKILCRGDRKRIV

Adenosine receptor A3 = target: T5, Adenosine receptor A3 (Homo sapiens, UniProt P0DMS8)
T5 sequence (P0DMS8 whole entry): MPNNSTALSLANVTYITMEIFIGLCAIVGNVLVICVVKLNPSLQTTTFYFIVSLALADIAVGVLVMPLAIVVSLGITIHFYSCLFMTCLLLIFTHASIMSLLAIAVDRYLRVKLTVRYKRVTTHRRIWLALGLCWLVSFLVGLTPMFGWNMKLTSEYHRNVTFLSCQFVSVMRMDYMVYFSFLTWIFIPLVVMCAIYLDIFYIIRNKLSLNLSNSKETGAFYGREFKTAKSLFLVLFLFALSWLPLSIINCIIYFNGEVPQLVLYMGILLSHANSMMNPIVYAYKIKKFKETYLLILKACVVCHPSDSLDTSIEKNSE

[8] = target: Voltage-gated inwardly rectifying potassium channel KCNH2 (Homo sapiens, UniProt Q12809); type: functional; conditions: read-out: AC50
Voltage-gated inwardly rectifying potassium channel KCNH2, sequence (Q12809 whole entry): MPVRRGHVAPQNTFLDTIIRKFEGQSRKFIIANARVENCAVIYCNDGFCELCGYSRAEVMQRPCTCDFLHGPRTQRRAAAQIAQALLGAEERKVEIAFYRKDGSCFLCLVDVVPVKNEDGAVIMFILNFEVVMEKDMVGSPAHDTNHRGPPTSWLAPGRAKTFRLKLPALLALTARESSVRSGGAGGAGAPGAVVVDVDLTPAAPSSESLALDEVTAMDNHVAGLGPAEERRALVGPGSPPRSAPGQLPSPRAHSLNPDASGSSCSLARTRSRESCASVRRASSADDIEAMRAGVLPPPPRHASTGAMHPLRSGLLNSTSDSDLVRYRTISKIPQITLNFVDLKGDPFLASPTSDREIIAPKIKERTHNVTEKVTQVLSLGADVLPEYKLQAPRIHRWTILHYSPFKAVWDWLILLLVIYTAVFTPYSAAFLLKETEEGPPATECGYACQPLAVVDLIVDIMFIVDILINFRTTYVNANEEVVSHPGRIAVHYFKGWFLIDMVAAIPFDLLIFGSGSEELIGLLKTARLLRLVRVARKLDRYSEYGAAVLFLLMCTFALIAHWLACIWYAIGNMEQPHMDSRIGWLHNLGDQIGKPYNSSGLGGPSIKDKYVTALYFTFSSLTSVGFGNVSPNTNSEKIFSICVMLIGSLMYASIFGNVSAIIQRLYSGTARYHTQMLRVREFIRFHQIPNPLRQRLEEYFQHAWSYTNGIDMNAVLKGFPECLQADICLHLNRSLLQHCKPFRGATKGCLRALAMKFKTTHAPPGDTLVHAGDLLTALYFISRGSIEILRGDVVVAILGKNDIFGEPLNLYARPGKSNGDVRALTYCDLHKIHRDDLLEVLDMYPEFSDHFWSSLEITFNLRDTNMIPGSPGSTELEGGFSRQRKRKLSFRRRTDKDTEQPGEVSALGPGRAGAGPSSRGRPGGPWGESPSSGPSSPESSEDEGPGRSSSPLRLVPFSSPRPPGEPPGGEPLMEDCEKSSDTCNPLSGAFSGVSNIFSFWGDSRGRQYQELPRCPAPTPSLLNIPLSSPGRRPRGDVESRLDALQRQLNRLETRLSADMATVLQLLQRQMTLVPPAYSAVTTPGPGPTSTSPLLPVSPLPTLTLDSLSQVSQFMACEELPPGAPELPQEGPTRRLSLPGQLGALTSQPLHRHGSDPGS
Also: assay procedure not described here.

SMILES	AC50 (Thromboxane A2 receptor [1])	AC50 (D(3) dopamine receptor)	AC50 (Estrogen receptor)	AC50 [2]	AC50 [3]	AC50 (Acetylcholinesterase)	AC50 [4]	AC50 (Mu-type opioid receptor)	AC50 (Thromboxane A2 receptor [5])	AC50 [6]	AC50 [7]	AC50 (Adenosine receptor A3)	AC50 [8]
CCCCCCCC(=O)N[C@H](CN1CCCC1)[C@H](O)c1ccc2c(c1)OCCO2	> 30 µM	> 30 µM	> 30 µM	> 30 µM	> 30 µM	> 30 µM	> 30 µM	14.1 µM	> 30 µM	> 30 µM	> 30 µM	–	–
CC(C1=C(CCN(C)C)Cc2ccccc21)c1ccccn1 (centres undefined)	> 30 µM	6.44 µM	–	13.7 µM	11.9 µM	> 30 µM	> 30 µM	7.04 µM	> 30 µM	0.0784 µM	15.1 µM	> 30 µM	2.7 µM
CC(=O)OCC[N+](C)(C)C [ACETYLCHOLINE]	0.34 µM	> 30 µM	–	> 30 µM	> 30 µM	> 30 µM	> 30 µM	> 30 µM	–	–	> 30 µM	–	> 30 µM
C[C@H](N)C(=O)O [ALANINE]	> 30 µM	> 30 µM	–	> 30 µM	> 30 µM	> 30 µM	> 30 µM	> 30 µM	> 30 µM	> 30 µM	> 30 µM	> 30 µM	> 30 µM
O=C1c2c(O)cccc2Cc2cccc(O)c21 [ANTHRALIN]	> 30 µM	> 30 µM	–	> 3 µM	> 3 µM	> 30 µM	> 30 µM	> 30 µM	> 30 µM	> 3 µM	> 30 µM	> 3 µM	> 1 µM
C[C@@H](O)[C@H]1C(=O)N2C(C(=O)[O-])=C(SC3Cn4cnc[n+]4C3)[C@H](C)[C@H]12 (some centres undefined) [BIAPENEM]	> 30 µM	> 30 µM	–	> 30 µM	> 30 µM	> 30 µM	> 30 µM	> 30 µM	> 30 µM	> 30 µM	> 30 µM	–	> 30 µM
CCCCOc1ccc(CC(=O)NO)cc1 [BUFEXAMAC]	> 30 µM	> 30 µM	–	> 30 µM	> 30 µM	> 30 µM	> 30 µM	> 30 µM	> 30 µM	> 30 µM	> 30 µM	> 30 µM	> 30 µM
Oc1c(I)cc(Cl)c2cccnc12 [CLIOQUINOL]	> 30 µM	> 10 µM	–	> 30 µM	2.79 µM	> 30 µM	> 30 µM	> 30 µM	> 10 µM	> 30 µM	> 30 µM	–	> 30 µM
Cc1onc(-c2c(Cl)cccc2Cl)c1C(=O)N[C@@H]1C(=O)N2[C@@H]1SC(C)(C)[C@@H]2C(=O)O [DICLOXACILLIN]	> 30 µM	> 30 µM	–	> 30 µM	> 30 µM	> 30 µM	> 30 µM	> 30 µM	> 30 µM	> 30 µM	> 30 µM	> 30 µM	> 30 µM
CCCCC/C=C\C/C=C\C/C=C\CCCCC(=O)O [GAMOLENIC ACID]	> 30 µM	> 30 µM	–	> 30 µM	> 30 µM	> 30 µM	> 30 µM	> 30 µM	> 30 µM	> 30 µM	> 30 µM	> 30 µM	> 30 µM
CC(N)CCCC(C)(C)O (centres undefined) [HEPTAMINOL]	> 30 µM	> 30 µM	–	> 30 µM	> 30 µM	> 30 µM	> 30 µM	> 30 µM	> 30 µM	> 30 µM	> 30 µM	> 30 µM	–
CC[N+](C)(CC)CCOC(=O)C1c2ccccc2Oc2ccccc21 [METHANTHELINE]	> 30 µM	> 30 µM	–	> 30 µM	> 30 µM	> 30 µM	> 30 µM	> 30 µM	> 30 µM	0.0126 µM	> 30 µM	> 30 µM	11 µM
CCC(=O)O[C@@H]1CC(=O)O[C@H](C)C/C=C/C=C/[C@H](OC(C)=O)[C@H](C)C[C@H](CC=O)[C@H](O[C@@H]2O[C@H](C)[C@@H](O[C@H]3C[C@@](C)(OC(C)=O)[C@@H](OC(=O)CC)[C@H](C)O3)[C@H](N(C)C)[C@H]2O)[C@H]1OC [MIOCAMYCIN]	> 30 µM	> 30 µM	> 30 µM	> 30 µM	> 30 µM	> 30 µM	> 30 µM	> 30 µM	> 30 µM	> 30 µM	> 30 µM	–	–
CCN(CC)CCOC(=O)C(Cc1cccc2ccccc12)CC1CCCO1 (centres undefined) [NAFRONYL]	> 30 µM	10.1 µM	–	28.4 µM	> 30 µM	> 30 µM	> 30 µM	7.16 µM	> 30 µM	0.199 µM	> 30 µM	> 30 µM	6.9 µM
c1ccc2[nH]c(-c3cscn3)nc2c1 [THIABENDAZOLE]	> 30 µM	> 30 µM	> 30 µM	–	> 30 µM	> 30 µM	> 30 µM	> 30 µM	> 30 µM	> 30 µM	> 30 µM	3.73 µM	> 30 µM
C[C@@H]1C[C@H]2[C@@H]3CCC4=CC(=O)C=C[C@]4(C)C3=CC[C@]2(C)[C@H]1C(=O)CN1CCN(c2cc(N3CCCC3)nc(N3CCCC3)n2)CC1 [TIRILAZAD]	> 30 µM	9.69 µM	> 30 µM	–	> 30 µM	> 30 µM	> 30 µM	> 30 µM	> 30 µM	0.432 µM	17.3 µM	4.07 µM	1.9 µM
